Patent US8129592B2, “Plant isoflavonoid hydroxylases and methods of use thereof” (The Samuel Roberts Noble Foundation, Inc., priority 2003, dated 2012)
Marks after values point to notes of the source that are not given here.

B1: I2′H (MtCYP81E7) (Medicago truncatula) (protein)
chain: MGILSYLCYSLFYLSIFFIIRLLFQSRKFKNLPPGPTSLPIIGNLHHLKRPLNRTFKALTEKYGNVISLWFGSRLVVVVSSLSEFQECFTKNDVVLANRPRFLSGKYIFYNYTTLGSTSYGEHWRNLRRITSLDVLSNHRINNFAPIRRDETQRLIKKLAEDSSTKFAEVELTFRFFDMTFNNIMRMISGKRYYGDDCDISEVQEASQFRDMVSELLQLSGANNKTDFMPLLKFLDFENLEKRVKRIGEKNDVFLSGLLQEQRSKKERTNTMIDHLLNMQESQPEYYTDTIIKGLCLAMLLAGTDSSAVTLEWTMSNILNYPEVLKKVRDEVDTHVGQDRLVDESDLPKLTYLRNVIYETLRLYTPAPLLLPHSTADECIMGGYKVPRDTIVLINAWAIHRDPETWSEATTFKPERFDKKGELEKMIAFGMGRRACPGEGLALRAISMTLALLVQCFDWKRINDEKIDMSERDGFTMTKLLPLKAMCKTRPVVNKVFK
notes: The open reading frame of MtCYP81E7 was amplified with forward primer; made in house; host or cells: Saccharomyces cerevisiae WAT11, vector YeDP60; microsomal fraction

Assays:
I2′H (MtCYP81E7) = target: T1, I2′H (MtCYP81E7) (Medicago truncatula, UniProt Q6WNR0); assay: Hydroxylase assay with yeast microsomes expressing recombinant MtCYP81E7 (I2′H); assay type: biochemical; conditions: for Substrate specificity of I2′H (MtCYP81E7), relative activity: 100% = biochanin A, a = sum of putative 2′ and/or 3′-hydroxylated products, ND = activities not detectable
T1 construct: The open reading frame of MtCYP81E7 was amplified with forward primer; made in house; host or cells: Saccharomyces cerevisiae WAT11, vector YeDP60; microsomal fraction
T1 sequence (Q6WNR0 1-498): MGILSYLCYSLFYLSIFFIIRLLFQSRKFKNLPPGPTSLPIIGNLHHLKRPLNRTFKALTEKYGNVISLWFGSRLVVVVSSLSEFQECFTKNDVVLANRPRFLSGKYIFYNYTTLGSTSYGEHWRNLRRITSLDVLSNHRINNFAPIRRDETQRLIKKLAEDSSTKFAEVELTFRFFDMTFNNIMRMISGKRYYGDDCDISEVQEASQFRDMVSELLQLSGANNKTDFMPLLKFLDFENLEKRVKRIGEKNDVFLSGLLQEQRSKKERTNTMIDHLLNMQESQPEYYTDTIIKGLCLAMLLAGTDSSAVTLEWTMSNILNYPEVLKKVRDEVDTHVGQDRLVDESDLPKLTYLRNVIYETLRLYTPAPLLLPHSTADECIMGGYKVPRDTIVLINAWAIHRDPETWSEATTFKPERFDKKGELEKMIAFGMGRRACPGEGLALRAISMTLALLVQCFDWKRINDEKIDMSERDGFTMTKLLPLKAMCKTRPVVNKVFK
Procedure: (§1) PCR products were digested with BamHI and KpnI and ligated into the yeast expression vector YeDP60 following BamHI/KpnI digestion. MtCYP81E8 was directly excised from the original clone in pBSK(+) by BamHI and KpnI and inserted into YeDP60. All constructs were sequenced to ensure that there were no PCR-introduced errors. […] After induction with 20% galactose for ˜18 h, yeast cells was harvested, weighed, and immediately processed for microsomal fractionation.
(§2) After incubation at ˜80 rpm for 30 to 40 min, spheroplasts were centrifuged down for 5 min, washed twice with Zymolyase buffer B, and then twice with phosphate buffer A (0.1 M potassium phosphate pH 8.0, 1 M sorbitol, 14 mM 2-mercaptoethanol). The spheroplasts were re-suspended in a minimum vol of phosphate buffer B (0.1 M potassium phosphate pH 8.0, 0.4 M sucrose, 14 mM β-mercaptoethanol, 1 mM PMSF and 1× […] (Roche Diagnostics GmbH, Mannheim, German), and 1 vol of glass beads (diameter at 0.45/0.50 mm) was added. Samples were vigorously vortexed at 4° C., with the quality of cell disruption checked under the microscope. The supernatant was then removed and the beads washed four times with phosphate buffer B. Supernatants were pooled and centrifuged at 12,000 g for 10 min; the resulting supernatant was then ultracentrifuged at 140,000 g for 90 min. The supernatant was discarded and the pellet washed briefly with phosphate buffer C (0.1 M potassium phosphate, pH 8.0, 0.4 M sucrose, 0.5 mM glutathione), and re-suspended in the same buffer plus 5% glycerol at about 12 mg total protein/ml. Protein was quantified using a Bio-Rad protein assay kit (Bio-Rad, Hercules, Calif.).
(§3) Hydroxylase assays were performed in phosphate buffer C in a total volume of 150 μl containing 2 mM NADPH, 40 μM isoflavone substrate and 40˜70 pmol P450 protein. […] The extracts were combined, evaporated under N2, re-suspended in 60 μl of methanol, and analyzed by HPLC or LC-MS. All assays to determine enzyme specificity were carried out in duplicate. For kinetic studies, the isoflavone concentration was varied at a fixed concentration of NADPH (2 mM), and kinetic constants calculated from initial rate data using Lineweaver-Burke double reciprocal plots. All kinetic analyses were carried out in triplicate.
(§4) Reaction products from enzyme assays (30 μl) were analyzed by HPLC.
(§5) Product identification was firstly based on comparisons of chromatographic behavior and UV spectra with authentic standards. Identifications were then confirmed by HPLC-MS, using a HP 1100 liquid chromatograph coupled to a Bruker Esquire Ion-Trap mass spectrometer equipped with an electrospray source. HPLC separation was achieved using a J. T. Baker Bakerbond reverse-phase column (C18, 5 μm, 4.6 mm×250 mm, J. T. Baker, Philipsberg, N.J.). Samples were eluted with the gradient described above but with 0.1% aqueous acetic acid replacing the 1% phosphoric acid. Ion charge control was set at 30,000 with a max acquire time of 100 ms. Mass spectra were recorded over a range of 50-2200 m/z.

I3′H (MtCYP81E9) = target: T2, I3′H (MtCYP81E9) (Medicago truncatula, UniProt Q6WNQ9); assay: Hydroxylase assay with yeast microsomes expressing recombinant MtCYP81E9 (I3′H); assay type: biochemical; conditions: for Substrate specificity of I3′H (MtCYP81E9), relative activity: 100% = biochanin A, a = sum of putative 2′ and/or 3′-hydroxylated products, b = sum of all the products, ND = activities not detectable
T2 construct: made in house; host or cells: Saccharomyces cerevisiae WAT11, vector YeDP60; microsomal fraction
T2 sequence (Q6WNQ9 with tags, fused parts or gaps limits assumed): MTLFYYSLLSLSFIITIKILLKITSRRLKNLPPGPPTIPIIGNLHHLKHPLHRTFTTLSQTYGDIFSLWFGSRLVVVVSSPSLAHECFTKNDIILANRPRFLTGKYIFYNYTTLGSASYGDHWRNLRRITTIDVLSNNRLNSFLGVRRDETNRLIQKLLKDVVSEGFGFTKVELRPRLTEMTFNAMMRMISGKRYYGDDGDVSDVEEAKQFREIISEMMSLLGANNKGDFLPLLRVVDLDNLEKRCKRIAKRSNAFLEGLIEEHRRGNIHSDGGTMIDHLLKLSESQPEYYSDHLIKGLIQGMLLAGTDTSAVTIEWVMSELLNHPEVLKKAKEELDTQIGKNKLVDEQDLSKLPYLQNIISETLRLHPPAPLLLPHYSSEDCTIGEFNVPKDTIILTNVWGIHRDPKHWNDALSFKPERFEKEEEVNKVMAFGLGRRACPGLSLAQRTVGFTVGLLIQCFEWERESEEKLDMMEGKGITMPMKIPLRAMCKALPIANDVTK
Procedure: as §1, §2, §3, §4, §5

MtCYP81E8 = target: T3, MtCYP81E8 (Medicago truncatula, UniProt Q6WNQ8); assay: Hydroxylase assay with yeast microsomes expressing recombinant MtCYP81E8; assay type: biochemical; conditions: standard assay conditions, or at different pH values and NADPH concentrations
T3 construct: The full length CYP81E8 cDNA was directly excised from its original clone; made in house; host or cells: Saccharomyces cerevisiae WAT11, vector YeDP60; microsomal fraction
T3 sequence (Q6WNQ8 1-499): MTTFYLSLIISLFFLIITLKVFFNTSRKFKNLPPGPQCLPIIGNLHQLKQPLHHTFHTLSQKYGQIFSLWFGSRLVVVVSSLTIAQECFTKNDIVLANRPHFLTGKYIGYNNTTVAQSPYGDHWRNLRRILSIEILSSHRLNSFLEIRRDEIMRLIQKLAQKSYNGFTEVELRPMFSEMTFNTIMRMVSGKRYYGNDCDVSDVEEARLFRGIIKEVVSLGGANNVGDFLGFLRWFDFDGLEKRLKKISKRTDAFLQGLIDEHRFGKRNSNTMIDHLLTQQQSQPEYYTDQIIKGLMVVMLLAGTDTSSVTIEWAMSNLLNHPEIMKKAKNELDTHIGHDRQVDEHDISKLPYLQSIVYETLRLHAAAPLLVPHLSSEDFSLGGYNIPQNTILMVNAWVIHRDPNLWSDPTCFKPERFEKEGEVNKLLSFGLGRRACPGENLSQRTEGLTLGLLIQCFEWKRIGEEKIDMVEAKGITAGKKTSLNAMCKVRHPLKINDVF
Procedure: as §1, §2, §3, §4

[1] = substrate: COc1ccc(-c2coc3cc(O)ccc3c2=O)cc1; assay: Hydroxylase assay with yeast microsomes expressing recombinant MtCYP81E7 (I2′H); assay type: biochemical, Medicago truncatula; conditions: other: 2 mM NADPH and pH 8.0, 25.0 °C
Procedure: (§6) After incubation at ˜80 rpm for 30 to 40 min, spheroplasts were centrifuged down for 5 min, washed twice with Zymolyase buffer B, and then twice with phosphate buffer A (0.1 M potassium phosphate pH 8.0, 1 M sorbitol, 14 mM 2-mercaptoethanol). The spheroplasts were re-suspended in a minimum vol of phosphate buffer B (0.1 M potassium phosphate pH 8.0, 0.4 M sucrose, 14 mM β-mercaptoethanol, 1 mM PMSF and 1× protein inhibitor cocktail (Roche Diagnostics GmbH, Mannheim, German), and 1 vol of glass beads (diameter at 0.45/0.50 mm) was added. Samples were vigorously vortexed at 4° C., with the quality of cell disruption checked under the microscope. The supernatant was then removed and the beads washed four times with phosphate buffer B. Supernatants were pooled and centrifuged at 12,000 g for 10 min; the resulting supernatant was then ultracentrifuged at 140,000 g for 90 min. The supernatant was discarded and the pellet washed briefly with phosphate buffer C (0.1 M potassium phosphate, pH 8.0, 0.4 M sucrose, 0.5 mM glutathione), and re-suspended in the same buffer plus 5% glycerol at about 12 mg total protein/ml. Protein was quantified using a Bio-Rad protein assay kit (Bio-Rad, Hercules, Calif.).
(§7) Hydroxylase assays were performed in phosphate buffer C in a total volume of 150 μl containing 2 mM NADPH, 40 μM isoflavone substrate and 40˜70 pmol P450 protein. Reactions were incubated at 25° C. for 1.5 h (over which period the reactions were linear) with gentle shaking and stopped by extracting twice with 500 μl of ethyl acetate. The extracts were combined, evaporated under N2, re-suspended in 60 μl of methanol, and analyzed by HPLC or LC-MS. All assays to determine enzyme specificity were carried out in duplicate. For kinetic studies, the isoflavone concentration was varied at a fixed concentration of NADPH (2 mM), and kinetic constants calculated from initial rate data using Lineweaver-Burke double reciprocal plots. All kinetic analyses were carried out in triplicate.
(§8) Product identification was firstly based on comparisons of chromatographic behavior and UV spectra with authentic standards. Identifications were then confirmed by HPLC-MS, using a HP 1100 liquid chromatograph coupled to a Bruker Esquire Ion-Trap mass spectrometer equipped with an electrospray source. HPLC separation was achieved using a J. T. Baker Bakerbond reverse-phase column (C18, 5 μm, 4.6 mm×250 mm, J. T. Baker, Philipsberg, N.J.). […] Mass spectra were recorded over a range of 50-2200 m/z.

[2] = substrate: COc1ccc(-c2coc3cc(O)cc(O)c3c2=O)cc1; assay: as above; assay type: biochemical, Medicago truncatula; conditions: other: 2 mM NADPH and pH 8.0, 25.0 °C
Procedure: as §6, §7, §8

Molecule | Activity of MtI2′H with substrate (in words) (I2′H (MtCYP81E7)) | Substrate specificity of I2′H (MtCYP81E7), relative activity (I2′H (MtCYP81E7); isoflavone 40 μM) | Substrate specificity of I3′H (MtCYP81E9), relative activity (I3′H (MtCYP81E9); isoflavone 40 μM) | Activity of MtI3′H with substrate (in words) (I3′H (MtCYP81E9)) | other results
O=c1c(-c2ccc(O)cc2)coc2cc(O)cc(O)c12 [Genistein, 5,7,4′-trihydroxyisoflavone] | weak activity | 10.2%^a | 19.13%^a |  | 
O=c1cc(-c2ccc(O)cc2)oc2cc(O)cc(O)c12 [apigenin] |  |  |  |  | Activity of recombinant MtCYP81E8 with substrate (in words) (MtCYP81E8): no activity
COc1ccc(-c2coc3cc(O)ccc3c2=O)c(O)c1 [2′-Hydroxyformononetin] | negligible activity | 9.1%^a | 39.34%^b | more active | 
O=C1C[C@@H](c2ccc(O)cc2)Oc2cc(O)ccc21 [liquiritigenin] |  |  |  |  | Activity of recombinant MtCYP81E8 with substrate (in words) (MtCYP81E8): no activity
NADPH |  |  |  |  | Km (I2′H (MtCYP81E7); read-out: apparent KM value of MtCYP81E7 for NADPH): ~0.17 µM
COc1ccc(-c2coc3cc(O)ccc3c2=O)cc1 [Formononetin, 7-hydroxy, 4′-methoxyisoflavone] |  | 37.2% | 50% |  | 
COc1ccc2c(=O)c(-c3ccc(O)cc3)coc2c1 [Isoformononetin] | Neither enzyme hydroxylated |  |  | Neither enzyme hydroxylated | 
O=c1cc(-c2ccc(O)c(O)c2)oc2cc(O)cc(O)c12 [luteolin] |  |  |  |  | Activity of recombinant MtCYP81E8 with substrate (in words) (MtCYP81E8): no activity
COc1cc(O)c2c(=O)c(-c3ccc(O)cc3)coc2c1 [Prunetin] | Neither enzyme hydroxylated |  |  | Neither enzyme hydroxylated | 
O=c1c(-c2ccc3c(c2)OCO3)coc2cc(O)ccc12 [Pseudobaptigenin] | active | 35% | 7.6%^a | low activity | 
COc1ccc(-c2coc3cc(O)ccc3c2=O)cc1O [3′-Hydroxyformononetin] | negligible activity | 4.7% |  |  | 
O=C1C[C@@H](c2ccc(O)cc2)Oc2cc(O)cc(O)c21 [narigenin] |  |  |  |  | Activity of recombinant MtCYP81E8 with substrate (in words) (MtCYP81E8): no activity
O=c1c(-c2ccc(O)cc2)coc2cc(O)ccc12 [Daidzein, 7,4′-dihydroxyisoflavone] | weak activity | 18.6%^a | 1.73%^a | low activity | 
COc1ccc(-c2coc3cc(O)cc(O)c3c2=O)cc1 [Biochanin A] |  | 100% | 100% |  | Activity corresponding to 100%, 2′-hydroxylation (I2′H (MtCYP81E7); isoflavone 40 μM, 2 mM NADPH): 53.8 pmol/pmol protein/h; Activity corresponding to 100%, 3′-hydroxylation (I3′H (MtCYP81E9); isoflavone 40 μM, 2 mM NADPH): 98.56 pmol pmol^−1 protein h^−1
B1 |  |  |  |  | Km [1]: 67 µM; kcat [1]: 0.015 s⁻¹; Km [2]: 51 µM; kcat [2]: 0.033 s⁻¹
